Several values for one entry are separate records, joined by “and”; a condition that tells them apart may be missing. Equal values may be shown once. Results filed as inconclusive are left out.
System: BDF1 mice, colon carcinoma 38 sc, T/C %
Assay: NCI In Vivo Anticancer Drug Screen. Data for tumor model Colon Carcinoma 38 (subcutaneous) in B6D2F1 (BDF1) mice
Details: endpoint: median tumor weight (est.), higher = larger tumour
Protocol: The antitumor activity of compounds was measured in mice bearing transplantable tumors. Survival or tumor size were measured and the results are expressed as the measurement made in the treated group (T) divided by the measurement made in the vehicle treated control group (C). The tumor model used in this assay is Colon Carcinoma 38 (subcutaneous) in B6D2F1 (BDF1) mice

[1] = dose: 25.0 mg/kg/injection, schedule: Q07DX002 (ip), vehicle: saline with Tween-80
[2] = dose: 50.0 mg/kg/injection, schedule: Q07DX002 (ip), vehicle: saline with Tween-80
[3] = dose: 100.0 mg/kg/injection, schedule: Q07DX002 (ip), vehicle: saline with Tween-80
[4] = dose: 200.0 mg/kg/injection, schedule: Q07DX002 (ip), vehicle: saline with Tween-80
[5] = dose: 1.5 mg/kg/injection, schedule: Q07DX002 (ip), vehicle: saline
[6] = dose: 3.0 mg/kg/injection, schedule: Q07DX002 (ip), vehicle: saline
[7] = dose: 12.0 mg/kg/injection, schedule: Q07DX002 (ip), vehicle: saline
[8] = dose: 24.0 mg/kg/injection, schedule: Q07DX002 (ip), vehicle: saline

Q: What does the source list for `CC(C)CC(=O)NC(C(=O)NC(C(=O)NC(CC(C)C)C(O)CC(=O)NC(C)C(=O)NC(CC(C)C)C(O)CC(=O)O)C(C)C)C(C)C` (stereo not drawn)?
A: T/C (dose: 25.0 mg/kg/injection, schedule: Q07DX002 (ip), vehicle: Klucel (hydroxypropylcellulose) (HPC)): 79 % of control; T/C (dose: 50.0 mg/kg/injection, schedule: Q07DX002 (ip), vehicle: Klucel (hydroxypropylcellulose) (HPC)): 109 % of control; T/C (dose: 100.0 mg/kg/injection, schedule: Q07DX002 (ip), vehicle: Klucel (hydroxypropylcellulose) (HPC)): 95 % of control; T/C (dose: 200.0 mg/kg/injection, schedule: Q07DX002 (ip), vehicle: Klucel (hydroxypropylcellulose) (HPC)): 120 % of control

Q: `NC(=S)N/N=C/c1ccc(OC(=O)COc2ccc(Cl)cc2)cn1` was tested. Which T/C (dose: 12.5 mg/kg/injection, schedule: Q07DX002 (ip), vehicle: saline with Tween-80) did it give?
A: Its T/C is 61 % of control.

Q: And the T/C [1]?
A: Its T/C is 77 % of control.

Q: What about the T/C [2] of the same compound?
A: Its T/C is 119 % of control.

Q: What about the T/C [3] of the same compound?
A: The T/C was 89 % of control.

Q: What about the T/C [4] of the same compound?
A: Its T/C is 81 % of control.

Q: And the T/C (dose: 400.0 mg/kg/injection, schedule: Q07DX002 (ip), vehicle: saline with Tween-80)?
A: Its T/C is 70 % of control.

Q: Which results are given for `COc1ccc(S(=O)(=O)N/N=C/C(=O)O)cc1`?
A: T/C (dose: 6.25 mg/kg/injection, schedule: Q07DX002 (ip), vehicle: saline with Tween-80): 82 % of control; T/C [1]: 96 % of control and 104 % of control; T/C [2]: 117 % of control and 100 % of control; T/C [4]: 87 % of control and 95 % of control

Q: How did the T/C [5] turn out when `COc1cccc2c1C(=O)c1c(O)c3c(c(O)c1C2=O)C[C@@](O)(/C(CO)=N/NC(=O)c1ccc(Cl)c(Cl)c1)C[C@@H]3OC1CC(N)C(O)C(C)O1` (stereo partly drawn) was run?
A: The T/C was 88 % of control.

Q: And the T/C [6]?
A: The T/C was 115 % of control.

Q: What about the T/C (dose: 6.0 mg/kg/injection, schedule: Q07DX002 (ip), vehicle: saline) of the same compound?
A: The T/C was 80 % of control.

Q: What about the T/C [7] of the same compound?
A: Its T/C is 73 % of control.

Q: And the T/C [8]?
A: Its T/C is 46 % of control.

Q: And the T/C (dose: 48.0 mg/kg/injection, schedule: Q07DX002 (ip), vehicle: saline)?
A: The T/C was 48 % of control.

Q: `[Cl][Pt+2][Cl].[NH-]C1CCC1.[NH2-]` was tested. Which T/C [5] did it give?
A: Its T/C is 95 % of control.

Q: And the T/C [6]?
A: Its T/C is 64 % of control.

Q: What about the T/C [7] of the same compound?
A: The T/C was 43 % of control and 49 % of control.

Q: And the T/C [8]?
A: Its T/C is 13 % of control.

Q: Which T/C (dose: 12.5 mg/kg/injection, schedule: Q07DX002 (ip), vehicle: saline) does the source give for `CN(CO)c1nc(N(C)CO)nc(N(C)CO)n1` here?
A: Its T/C is 95 % of control.

Q: What about the T/C (dose: 12.5 mg/kg/injection, schedule: Q07DX003 (ip), vehicle: saline) of the same compound?
A: The T/C was 208 % of control.

Q: And the T/C (dose: 25.0 mg/kg/injection, schedule: Q07DX002 (ip), vehicle: saline)?
A: The T/C was 87 % of control.

Q: And the T/C (dose: 25.0 mg/kg/injection, schedule: Q07DX003 (ip), vehicle: saline)?
A: Its T/C is 165 % of control.

Q: What about the T/C [2] of the same compound?
A: The T/C was 117 % of control.

Q: What about the T/C (dose: 50.0 mg/kg/injection, schedule: Q07DX002 (ip), vehicle: saline) of the same compound?
A: Its T/C is 66 % of control.

Q: And the T/C (dose: 50.0 mg/kg/injection, schedule: Q07DX003 (ip), vehicle: saline)?
A: Its T/C is 81 % of control.

Q: And the T/C [3]?
A: The T/C was 105 % of control.

Q: And the T/C (dose: 100.0 mg/kg/injection, schedule: Q07DX002 (ip), vehicle: saline)?
A: Its T/C is 46 % of control.

Q: What about the T/C (dose: 100.0 mg/kg/injection, schedule: Q07DX003 (ip), vehicle: saline) of the same compound?
A: The T/C was 46 % of control.

Q: And the T/C [4]?
A: The T/C was 55 % of control.

Q: And the T/C (dose: 200.0 mg/kg/injection, schedule: Q07DX002 (ip), vehicle: saline)?
A: Its T/C is 21 % of control.

Q: What about the T/C (dose: 200.0 mg/kg/injection, schedule: Q07DX003 (ip), vehicle: saline) of the same compound?
A: Its T/C is 6 % of control.

Q: And the T/C (dose: 400.0 mg/kg/injection, schedule: Q07DX002 (ip), vehicle: saline)?
A: The T/C was 4 % of control.

Q: For `COc1ccc(OC)c(Cc2cnc3nc(N)nc(N)c3c2C)c1`, which T/C (dose: 12.5 mg/kg/injection, schedule: Q07DX002 (ip), vehicle: water) is on record?
A: The T/C was 62 % of control.

Q: And the T/C (dose: 25.0 mg/kg/injection, schedule: Q07DX002 (ip), vehicle: water)?
A: Its T/C is 96 % of control.

Q: And the T/C (dose: 50.0 mg/kg/injection, schedule: Q07DX002 (ip), vehicle: water)?
A: The T/C was 67 % of control and 82 % of control.

Q: And the T/C (dose: 100.0 mg/kg/injection, schedule: Q07DX002 (ip), vehicle: water)?
A: Its T/C is 93 % of control and 100 % of control.

Q: And the T/C (dose: 200.0 mg/kg/injection, schedule: Q07DX002 (ip), vehicle: water)?
A: The T/C was 32 % of control.

Source: PubChem BioAssay AID212 (DTP/NCI, 2004)
